Test results from ChEMBL document CHEMBL5036365, “A Molecular Networking Based Discovery of Diketopiperazine Heterodimers and Aspergillicins from Aspergillus caelatus” (J Nat Prod, 2022).
Calls of active or inactive are those of the source.

How the values were obtained:
HepG2 [1] = test: Cytotoxicity against human HepG2 cells at 25 ug/ml treated for 72 hrs by MTT assay; assay type: functional, cell-based; conditions: dose 25.0 µg/ml
Botrytis cinerea [2] = test: Antifungal activity against Botrytis cinerea B05.10 at 100 ug/ml incubated for 24 hrs by agar based assay; assay type: functional, organism-based; conditions: dose 100.0 µg/ml
Fusarium graminearum [3] = test: Antifungal activity against Fusarium graminearum BRFM 1982 at 100 ug/ml incubated for 24 hrs by agar based assay; assay type: functional, organism-based; conditions: dose 100.0 µg/ml
Pyricularia grisea [4] = test: Antifungal activity against Magnaporthe grisea CF-105765 at 100 ug/ml incubated for 24 hrs by agar based assay; assay type: functional, organism-based; conditions: dose 100.0 µg/ml
HepG2 [5] = test: Cytotoxicity against human HepG2 cells at 40 ug/ml treated for 72 hrs by MTT assay; assay type: functional, cell-based; conditions: dose 40.0 µg/ml
Botrytis cinerea [6] = test: Antifungal activity against Botrytis cinerea B05.10 at 160 ug/ml incubated for 24 hrs by agar based assay; assay type: functional, organism-based; conditions: dose 160.0 µg/ml
Fusarium graminearum [7] = test: Antifungal activity against Fusarium graminearum BRFM 1982 at 160 ug/ml incubated for 24 hrs by agar based assay; assay type: functional, organism-based; conditions: dose 160.0 µg/ml
Pyricularia grisea [8] = test: Antifungal activity against Magnaporthe grisea CF-105765 at 160 ug/ml incubated for 24 hrs by agar based assay; assay type: functional, organism-based; conditions: dose 160.0 µg/ml
HepG2 [9] = test: Cytotoxicity against human HepG2 cells at 20 ug/ml treated for 72 hrs by MTT assay; assay type: functional, cell-based; conditions: dose 20.0 µg/ml
Botrytis cinerea [10] = test: Antifungal activity against Botrytis cinerea B05.10 at 80 ug/ml incubated for 24 hrs by agar based assay; assay type: functional, organism-based; conditions: dose 80.0 µg/ml
Fusarium graminearum [11] = test: Antifungal activity against Fusarium graminearum BRFM 1982 at 80 ug/ml incubated for 24 hrs by agar based assay; assay type: functional, organism-based; conditions: dose 80.0 µg/ml
Pyricularia grisea [12] = test: Antifungal activity against Magnaporthe grisea CF-105765 at 80 ug/ml incubated for 24 hrs by agar based assay; assay type: functional, organism-based; conditions: dose 80.0 µg/ml
HepG2 [13] = test: Cytotoxicity against human HepG2 cells at 12.5 ug/ml treated for 72 hrs by MTT assay; assay type: functional, cell-based; conditions: dose 12.5 µg/ml
Botrytis cinerea [14] = test: Antifungal activity against Botrytis cinerea B05.10 at 50 ug/ml incubated for 24 hrs by agar based assay; assay type: functional, organism-based; conditions: dose 50.0 µg/ml
Fusarium graminearum [15] = test: Antifungal activity against Fusarium graminearum BRFM 1982 at 50 ug/ml incubated for 24 hrs by agar based assay; assay type: functional, organism-based; conditions: dose 50.0 µg/ml
Pyricularia grisea [16] = test: Antifungal activity against Magnaporthe grisea CF-105765 at 50 ug/ml incubated for 24 hrs by agar based assay; assay type: functional, organism-based; conditions: dose 50.0 µg/ml

Measured: Activity

CN1C(=O)[C@H](Cc2cn([C@@]34C[C@H]5C(=O)N(C)[C@H](Cc6ccccc6)C(=O)N5[C@@H]3Nc3ccccc34)c3ccccc23)NC(=O)[C@H]1Cc1ccccc1
inactive: HepG2 [1] | Botrytis cinerea [2] | Fusarium graminearum [3] | Pyricularia grisea [4]

CC[C@H](C)[C@H]1NC(=O)[C@@H](NC(C)=O)[C@@H](C)OC(=O)[C@H](C(C)C)NC(=O)[C@H](Cc2ccc(OC)cc2)N(C)C(=O)[C@@H]2CCCN2C(=O)[C@@H]2CCCN2C1=O
inactive: HepG2 [5] | Botrytis cinerea [6] | Fusarium graminearum [7] | Pyricularia grisea [8]

COc1ccc(C[C@H]2C(=O)N[C@@H](C(C)C)C(=O)O[C@H](C)[C@H](NC(C)=O)C(=O)N[C@H](C(C)C)C(=O)N3CCC[C@H]3C(=O)N3CCC[C@H]3C(=O)N2C)cc1
inactive: HepG2 [5] | Botrytis cinerea [6] | Fusarium graminearum [7] | Pyricularia grisea [8]

CN1C(=O)[C@H](Cc2c[nH]c3cc([C@@]45C[C@H]6C(=O)N(C)[C@H](Cc7ccccc7)C(=O)N6[C@@H]4N(C=O)c4ccccc45)ccc23)NC(=O)[C@H]1Cc1ccccc1
inactive: HepG2 [5] | Botrytis cinerea [6] | Fusarium graminearum [7] | Pyricularia grisea [8]

CN1C(=O)[C@H](Cc2c[nH]c3ccc([C@]45C[C@H]6C(=O)N(C)[C@H](Cc7ccccc7)C(=O)N6[C@H]4Nc4ccccc45)cc23)NC(=O)[C@H]1Cc1ccccc1
inactive: HepG2 [5] | Botrytis cinerea [6] | Fusarium graminearum [7] | Pyricularia grisea [8]

CC[C@H](C)[C@H]1NC(=O)[C@@H](NC(C)=O)[C@@H](C)OC(=O)[C@H](C(C)C)NC(=O)[C@H](Cc2ccccc2)N(C)C(=O)[C@@H]2CCCN2C(=O)[C@@H]2CCCN2C1=O
inactive: HepG2 [9] | Botrytis cinerea [10] | Fusarium graminearum [11] | Pyricularia grisea [12]

CN1C(=O)[C@H](Cc2c[nH]c3cc([C@@]45C[C@H]6C(=O)N(C)[C@H](Cc7ccccc7)C(=O)N6[C@@H]4Nc4ccccc45)ccc23)NC(=O)[C@H]1Cc1ccccc1
inactive: HepG2 [13] | Botrytis cinerea [14] | Fusarium graminearum [15] | Pyricularia grisea [16]

CN1C(=O)[C@H](Cc2cn([C@@]34C[C@H]5C(=O)N(C)[C@H](Cc6ccccc6)C(=O)N5[C@@H]3N(C=O)c3ccccc34)c3ccccc23)NC(=O)[C@H]1Cc1ccccc1
inactive: HepG2 [5] | Botrytis cinerea [6] | Fusarium graminearum [7] | Pyricularia grisea [8]
